The values below come from patent US8791131B2, “Imidazo[1,5]naphthyridine compounds, their pharmaceutical use and compositions” (Pfizer Inc., priority 2008, dated 2014).

A word on the pKi: it is −log10 of the Ki, conventionally taken in molar units. Low values mean a large Ki, high ones a small Ki. The term IC50 denotes the concentration that inhibits the measured activity by half.

pKi: −log10 of the molar value. Where two headings read alike, the source gives them in different places.

In one assay the target is PI3-Kα (Mus musculus (Mouse), UniProt P42337). As to the kind of experiment: PI3-Kα biochemical assay (in vitro kinase assay, fluorescence polarization).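 Further: Insect-cell-expressed mouse p110/p85 complex converting PI(4,5)P2, product PI(3,4,5)P3 detected by displacing TAMRA-tagged PI(3,4,5)P3 from Grip1 PH domain, lower polarization means more product, room temperature.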 Conditions: Ki calculated from IC50, [ATP]=30 uM, Km=25 uM.
PI3-Kα, sequence (P42337 whole entry, the tested form may be a part): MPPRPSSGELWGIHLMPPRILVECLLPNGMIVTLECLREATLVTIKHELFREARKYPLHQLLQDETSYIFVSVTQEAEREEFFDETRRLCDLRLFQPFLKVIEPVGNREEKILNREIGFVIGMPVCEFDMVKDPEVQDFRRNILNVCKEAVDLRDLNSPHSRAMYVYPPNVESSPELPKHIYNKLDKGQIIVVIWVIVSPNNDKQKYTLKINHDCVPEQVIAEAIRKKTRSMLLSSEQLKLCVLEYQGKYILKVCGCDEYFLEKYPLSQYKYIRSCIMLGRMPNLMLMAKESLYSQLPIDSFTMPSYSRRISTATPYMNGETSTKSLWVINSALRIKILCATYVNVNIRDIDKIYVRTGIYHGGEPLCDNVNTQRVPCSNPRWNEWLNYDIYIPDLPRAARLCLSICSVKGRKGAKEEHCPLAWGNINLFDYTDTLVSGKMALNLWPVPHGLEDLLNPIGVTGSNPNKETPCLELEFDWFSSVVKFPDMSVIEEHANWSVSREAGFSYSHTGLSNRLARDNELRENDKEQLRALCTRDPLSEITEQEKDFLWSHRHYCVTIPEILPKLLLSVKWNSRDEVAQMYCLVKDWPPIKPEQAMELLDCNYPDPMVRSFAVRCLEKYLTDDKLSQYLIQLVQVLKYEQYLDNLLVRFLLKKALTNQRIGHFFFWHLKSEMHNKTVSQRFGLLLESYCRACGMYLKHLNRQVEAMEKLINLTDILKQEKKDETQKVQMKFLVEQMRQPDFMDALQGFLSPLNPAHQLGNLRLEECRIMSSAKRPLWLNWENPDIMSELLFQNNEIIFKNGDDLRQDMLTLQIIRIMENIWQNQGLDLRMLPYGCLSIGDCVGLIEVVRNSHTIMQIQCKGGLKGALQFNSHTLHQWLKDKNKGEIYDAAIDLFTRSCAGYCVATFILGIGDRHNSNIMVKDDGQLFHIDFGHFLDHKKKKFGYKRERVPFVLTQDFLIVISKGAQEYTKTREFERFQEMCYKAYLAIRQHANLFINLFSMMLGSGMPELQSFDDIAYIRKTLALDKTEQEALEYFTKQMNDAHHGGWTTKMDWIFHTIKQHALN
PI3-Kα, sequence (P26450 whole entry partner, the tested form may be a part): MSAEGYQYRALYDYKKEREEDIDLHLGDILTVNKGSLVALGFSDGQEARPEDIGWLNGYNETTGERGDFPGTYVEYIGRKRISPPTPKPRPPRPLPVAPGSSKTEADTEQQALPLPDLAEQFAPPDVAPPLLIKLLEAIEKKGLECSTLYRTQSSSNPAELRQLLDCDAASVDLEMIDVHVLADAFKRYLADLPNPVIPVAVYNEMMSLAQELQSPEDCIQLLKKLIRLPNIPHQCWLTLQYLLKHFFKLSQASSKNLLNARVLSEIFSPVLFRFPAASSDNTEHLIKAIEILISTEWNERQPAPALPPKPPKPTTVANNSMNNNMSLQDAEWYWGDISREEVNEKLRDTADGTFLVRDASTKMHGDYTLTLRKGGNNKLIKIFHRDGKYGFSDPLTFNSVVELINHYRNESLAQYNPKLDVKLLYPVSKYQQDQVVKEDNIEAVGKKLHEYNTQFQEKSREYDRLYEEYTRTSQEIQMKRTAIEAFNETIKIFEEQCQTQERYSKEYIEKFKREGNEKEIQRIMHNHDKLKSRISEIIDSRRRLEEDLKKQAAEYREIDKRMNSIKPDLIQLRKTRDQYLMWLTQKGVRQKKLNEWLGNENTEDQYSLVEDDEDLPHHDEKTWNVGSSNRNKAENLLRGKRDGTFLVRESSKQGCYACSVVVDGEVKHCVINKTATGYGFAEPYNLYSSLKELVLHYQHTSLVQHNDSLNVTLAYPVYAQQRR
Another assay deals with mTOR (Homo sapiens (Human), UniProt P42345).
mTOR, sequence (P42345 2156-2469): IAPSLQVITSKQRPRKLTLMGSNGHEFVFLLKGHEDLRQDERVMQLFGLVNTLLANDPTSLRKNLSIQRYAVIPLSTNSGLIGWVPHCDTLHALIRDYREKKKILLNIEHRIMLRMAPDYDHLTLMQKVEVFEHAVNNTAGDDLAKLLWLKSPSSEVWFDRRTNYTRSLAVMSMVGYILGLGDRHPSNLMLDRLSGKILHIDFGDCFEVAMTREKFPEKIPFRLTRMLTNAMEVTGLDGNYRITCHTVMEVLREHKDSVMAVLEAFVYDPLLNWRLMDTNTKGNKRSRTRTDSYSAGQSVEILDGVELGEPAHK
Assay [1] relates to PI3-K (phosphorylation of AKT at serine 473) in BT20 cells. Description: PI3-Kα cellular assay (phospho-AKT Ser473 ELISA in BT20 cells).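 Further: lysates read by ELISA with TMB colour at 450 nm, cells given 0.5% DMSO vehicle serve as positive control and cell-free wells as negative control, duplicate wells per concentration.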 Conditions: Homo sapiens, BT-20, 1 h. For orientation: An ELISA detects its analyte on a solid surface through an enzyme-linked reagent.
The mark [2] stands for this setting: read-out: S473 pAKT 0.5% FBS IC50 (μM).
[3] abbreviates: read-out: S473 pAKT 10% FBS IC50 (μM).

`CN(C)CC(=O)N1CCC(n2c(=O)n(C)c3cnc4ccc(-c5cnc6ccccc6c5)nc4c32)CC1` [Compound 126, 1-[1-(N,N-dimethylglycyl)piperidin-4-yl]-3-methyl-8-quinolin-3-yl-1,3-dihydro-2H-imidazo[4,5-c][1,5]naphthyridin-2-one]: the “PI3Ka Ki” value at PI3-Kα is 2.55 nM. On mTOR, this compound gave a pKi of 8.47. For the same compound, the IC50 in assay [1] (setting [2]) came out at 0.018 µM.
For `CCOC(=O)N1CCC(n2c(=O)n(C)c3cnc4ccc(-c5cnc6ccccc6c5)nc4c32)CC1` [Compound 127, ethyl 4-(3-methyl-2-oxo-8-quinolin-3-yl-2,3-dihydro-1H-imidazo[4,5-c][1,5]naphthyridin-1-yl)piperidine-1-carboxylate], in that order: 1.38 nM, 8.37 and 0.0204 µM.
As for `CC(C)OC(=O)N1CCC(n2c(=O)n(C)c3cnc4ccc(-c5cnc6ccccc6c5)nc4c32)CC1` [Compound 128, isopropyl 4-(3-methyl-2-oxo-8-quinolin-3-yl-2,3-dihydro-1H-imidazo[4,5-c][1,5]naphthyridin-1-yl)piperidine-1-carboxylate], the “PI3Ka Ki” value at PI3-Kα was 2.89 nM. Also, the pKi on mTOR is 8.01. In addition, the IC50 in assay [1] (setting [2]) was 0.0196 µM.
The like results for `CN1CCC(n2c(=O)n(C)c3cnc4ccc(-c5cnc6ccccc6c5)nc4c32)CC1` [Compound 129, 3-methyl-1-(1-methylpiperidin-4-yl)-8-quinolin-3-yl-1,3-dihydro-2H-imidazo[4,5-c][1,5]naphthyridin-2-one] were, in that order, 5.92 nM, 8.31 and 0.0117 µM.
For `COc1ccc(-c2ccc3ncc4[nH]c(=O)n(Cc5ccccc5)c4c3n2)cn1` [Compound 130, 1-benzyl-8-(6-methoxypyridin-3-yl)-1,3-dihydro-2H-imidazo[4,5-c][1,5]naphthyridin-2-one], in that order: 2.39 nM, 8.07 and 0.0245 µM.
Turning to `COc1ccc(-c2ccc3ncc4[nH]c(=O)n([C@H]5CC[C@H](OCCO)CC5)c4c3n2)cn1` [Compound 131, 1-[trans-4-(2-hydroxyethoxy)cyclohexyl]-8-(6-methoxypyridin-3-yl)-1,3-dihydro-2H-imidazo[4,5-c][1,5]naphthyridin-2-one], the “PI3Ka Ki” value at PI3-Kα is 0.644 nM. In addition, the pKi on mTOR was 8.67. Also, the IC50 in assay [1] (setting [3]) worked out at 0.0384 µM.
For `COc1ccc(-c2ccc3ncc4[nH]c(=O)n([C@H]5CC[C@H](O)CC5)c4c3n2)cn1` [Compound 132, 1-(trans-4-hydroxycyclohexyl)-8-(6-methoxypyridin-3-yl)-1,3-dihydro-2H-imidazo[4,5-c][1,5]naphthyridin-2-one], in that order: 0.51 nM, 8.86 and 0.0468 µM.
For `COc1ccc(-c2ccc3ncc4c(c3n2)n(C2CCN(C(C)C)CC2)c(=O)n4C)cn1` [Compound 137, 1-(1-isopropylpiperidin-4-yl)-8-(6-methoxypyridin-3-yl)-3-methyl-1,3-dihydro-2H-imidazo[4,5-c][1,5]naphthyridin-2-one], in that order: 3.48 nM, 7.75 and 0.0551 µM.
With `COc1ccc(-c2ccc3ncc4c(c3n2)n(C2CCN(C(=O)CN(C)C)CC2)c(=O)n4C)cn1` [Compound 138, 1-[1-(N,N-dimethylglycyl)piperidin-4-yl]-8-(6-methoxypyridin-3-yl)-3-methyl-1,3-dihydro-2H-imidazo[4,5-c][1,5]naphthyridin-2-one], the “PI3Ka Ki” value on PI3-Kα was 2.23 nM. The pKi at mTOR is 7.97. The IC50 in assay [1] (setting [3]) was found to be 0.0144 µM.
The like results for `COc1ccc(-c2ccc3ncc4c(c3n2)n(C2CCN(CC(N)=O)CC2)c(=O)n4C)cn1` [Compound 139, 2-{4-[8-(6-methoxypyridin-3-yl)-3-methyl-2-oxo-2,3-dihydro-1H-imidazo[4,5-c][1,5]naphthyridin-1-yl]piperidin-1-yl}acetamide] were, in that order, 0.339 nM, 8.48 and 0.00714 µM.
For the compound `COc1ccc(-c2ccc3ncc4c(c3n2)n(C2CCOCC2)c(=O)n4C)cn1` [Compound 140, 8-(6-methoxypyridin-3-yl)-3-methyl-1-(tetrahydro-2H-pyran-4-yl)-1,3-dihydro-2H-imidazo[4,5-c][1,5]naphthyridin-2-one], on PI3-Kα, the “PI3Ka Ki” value is 0.668 nM. This compound also gave a pKi on mTOR of 8.11. Besides, the IC50 in assay [1] (setting [3]) is 0.0185 µM.
The like results for `Cn1c(=O)n(C2CCN(CC(F)(F)F)CC2)c2c3nc(-c4cnc5ccccc5c4)ccc3ncc21` [Compound 141, 3-methyl-8-quinolin-3-yl-1-[1-(2,2,2-trifluoroethyl)piperidin-4-yl]-1,3-dihydro-2H-imidazo[4,5-c][1,5]naphthyridin-2-one] were, in that order, 20.5 nM, 8.02 and 0.0148 µM.
As for `CNC(=O)N1CCC(n2c(=O)n(C)c3cnc4ccc(-c5ccc(OC)nc5)nc4c32)CC1` [Compound 142, 4-[8-(6-methoxypyridin-3-yl)-3-methyl-2-oxo-2,3-dihydro-1H-imidazo[4,5-c][1,5]naphthyridin-1-yl]-N-methylpiperidine-1-carboxamide], the “PI3Ka Ki” value at PI3-Kα is 1.15 nM. This compound gave a pKi on mTOR of 8.80. Moreover, the IC50 in assay [1] (setting [3]) came out at 0.00919 µM.
For `Cn1c(=O)n(C2CCN(C(=O)C(C)(C)O)CC2)c2c3nc(-c4cnc5ccccc5c4)ccc3ncc21` [Compound 143, 1-[1-(2-hydroxy-2-methylpropanoyl)piperidin-4-yl]-3-methyl-8-quinolin-3-yl-1,3-dihydro-2H-imidazo[4,5-c][1,5]naphthyridin-2-one], in that order: 0.568 nM, 8.14 and 0.028 µM.
For `CN(C)CC(=O)N1CCC(n2c(=O)n(C)c3cnc4ccc(-c5ccc(N(C)C)nc5)nc4c32)CC1` [Compound 144, 8-[6-(dimethylamino)pyridin-3-yl]-1-[1-(N,N-dimethylglycyl)piperidin-4-yl]-3-methyl-1,3-dihydro-2H-imidazo[4,5-c][1,5]naphthyridin-2-one], in that order: 2.1 nM, 8.10 and 0.0153 µM.
For `Cn1c(=O)n(C2CCN(C(=O)C(C)(C)N)CC2)c2c3nc(-c4cnc5ccccc5c4)ccc3ncc21` [Compound 145, 3-methyl-1-[1-(2-methylalanyl)piperidin-4-yl]-8-quinolin-3-yl-1,3-dihydro-2H-imidazo[4,5-c][1,5]naphthyridin-2-one], at PI3-Kα, the “PI3Ka Ki” value was 3.92 nM. The compound further had a pKi on mTOR of 7.88. In addition, the IC50 in assay [1] (setting [3]) turned out to be 0.0117 µM.
The like results for `Cn1c(=O)n([C@H]2CC[C@H](O)CC2)c2c3nc(-c4cnc5ccccc5c4)ccc3ncc21` [Compound 146, 1-(trans-4-hydroxycyclohexyl)-3-methyl-8-quinolin-3-yl-1,3-dihydro-2H-imidazo[4,5-c][1,5]naphthyridin-2-one] were, in that order, 1.2 nM, 8.42 and 0.00521 µM.
For `Cn1c(=O)n([C@H]2CC[C@H](OCCO)CC2)c2c3nc(-c4cnc5ccccc5c4)ccc3ncc21` [Compound 147, 1-[trans-4-(2-hydroxyethoxy)cyclohexyl]-3-methyl-8-quinolin-3-yl-1,3-dihydro-2H-imidazol[4,5-c][1,5]naphthyridin-2-one], in that order: 1.08 nM, 8.00 and 0.0107 µM.
With `COc1ncc(-c2ccc3ncc4c(c3n2)n([C@H]2CC[C@H](OCCO)CC2)c(=O)n4C)cn1` [Compound 148, 1-[trans-4-(2-hydroxyethoxy)cyclohexyl]-8-(2-methoxypyrimidin-5-yl)-3-methyl-1,3-dihydro-2H-imidazo[4,5-c][1,5]naphthyridin-2-one], the “PI3Ka Ki” value on PI3-Kα was 2.09 nM. The pKi on mTOR is 7.87. Also, in assay [1] (setting [3]), the IC50 was 0.0263 µM.
For the compound `CN(C)c1ccc(-c2ccc3ncc4c(c3n2)n([C@H]2CC[C@H](OCCO)CC2)c(=O)n4C)cn1` [Compound 149, 8-[6-(dimethylamino)pyridin-3-yl]-1-[trans-4-(2-hydroxyethoxy)cyclohexyl]-3-methyl-1,3-dihydro-2H-imidazo[4,5-c][1,5]naphthyridin-2-one], the “PI3Ka Ki” value at PI3-Kα was 0.102 nM. At mTOR, this compound showed a pKi of 8.04. Also, the IC50 in assay [1] (setting [3]) worked out at 0.0116 µM.
Consider `CN(C)c1ccc(-c2ccc3ncc4c(c3n2)n(C2CCN(CC(F)(F)F)CC2)c(=O)n4C)cn1` [Compound 150, 8-[6-(dimethylamino)pyridin-3-yl]-3-methyl-1-[1-(2,2,2-trifluoroethyl)piperidin-4-yl]-1,3-dihydro-2H-imidazo[4,5-c][1,5]naphthyridin-2-one], for which the “PI3Ka Ki” value at PI3-Kα is 8.78 nM. For the same compound, the pKi at mTOR is 7.90. Further, the IC50 in assay [1] (setting [3]) came to 0.0182 µM.
For `Cc1ccc(-c2ccc3ncc4c(c3n2)n([C@H]2CC[C@H](OCCO)CC2)c(=O)n4C)cn1` [Compound 152, 1-[trans-4-(2-hydroxyethoxy)cyclohexyl]-3-methyl-8-(6-methylpyridin-3-yl)-1,3-dihydro-2H-imidazo[4,5-c][1,5]naphthyridin-2-one], in that order: 1.68 nM, 7.94 and 0.00863 µM.
Consider `COc1ncc(-c2ccc3ncc4c(c3n2)n(C2CCN(C(=O)[C@H](C)O)CC2)c(=O)n4C)cn1` [Compound 154, 1-{1-[(2S)-2-hydroxypropanoyl]piperidin-4-yl}-8-(2-methoxypyrimidin-5-yl)-3-methyl-1,3-dihydro-2H-imidazo[4,5-c][1,5]naphthyridin-2-one], for which the “PI3Ka Ki” value at PI3-Kα is 2.59 nM. The same compound gave a pKi at mTOR of 9.09. In assay [1] (setting [3]), the IC50 was 0.0342 µM.
